Tested on: highly active NK cells
Test: Viability of freeze-thawed highly active NK cells (7-AAD staining, flow cytometry, FlowJo)
Settings: collect. method 2
Method: The highly activated NK cells (1×10^5 cells/well) thawed under each condition were centrifuged on a 96-well plate (IWAKI, 4870-800SP), the supernatant was removed, and then a 7-amino-actinomycin D (7-AAD) solution diluted with PBS (Beckman Coulter, A 07704) was added to the cells to suspend them, and the suspension was incubated at room temperature (room temperature means 15 to 25° C., the same shall apply in the following experiments) for 20 minutes. The stained cells were measured by using a flow cytometer (BD LSR Fortessa, BD Biosciences).
The NK cells frozen for 48 hours or longer were thawed in a water bath at 37° C., and 1×10^5 cells were dispensed on a 96-well plate (IWAKI) immediately after the thawing. […] The cells dispensed immediately after thawing were centrifuged immediately after they were dispensed, and the cells of the other four groups were centrifuged after incubation of 3 hours, measurement was performed by the method for staining with 7-AAD described above, and the results were analyzed with the FlowJo software (FLOWJO, LLC) to calculate viable cell rates.
The NK cells frozen for 48 hours or longer were thawed at 37° C. in a water bath, and then 1×10^5 of the cells were dispensed on a 96-well plate immediately after the thawing. […] The cells dispensed immediately after thawing were centrifuged immediately after they were dispensed, and the cells of the other four groups were centrifuged after incubation of 3 hours, measurement was performed by the method for staining with 7-AAD described above, and the results were analyzed with the FlowJo software (FLOWJO, LLC) to calculate viable cell rates.
Then, measurement was performed by the method for staining with 7-AAD described above, and the results were analyzed with the FlowJo software. […] Then, measurement was performed by the method for staining with 7-AAD described above, and the results were analyzed with the FlowJo software. (8-3) The experiment was performed in the same manner as in (8-1), but (1) PBS, (2) Plasma-Lyte A, (3) Plasma-Lyte A containing 27.7 mEq/L of lactic acid (Nacalai Tesque, 20006-62), (4) Plasma-Lyte A containing 48.84 mg/L of MgSO4.7H2O (Nacalai Tesque, 21002-85), (5) Lactoringer, (6) Veen-F (Fuso Pharma), (7) Solita-T1 (AY Pharmaceuticals), (8) Solita-T3 (AY Pharmaceuticals), (9) 5% glucose injection solution (Terumo), and (10) RPMI medium were used as the solvents for dilution of thawed cells, and the cells were incubated at 37° C. for 3 hours. In the case of (3), lactic acid was added at the same concentration as the lactate concentration in Lactoringer, and neutrality of the solution was confirmed with litmus test paper. In the case of (4), MgSO4 was added at the same concentration as the MgSO4 concentration in HBSS. Measurement was then performed by the method for staining with 7-AAD described above, and the results were analyzed with the FlowJo software. (8-4) The experiment was performed in the same manner as in (8-2), but the cells were treated by using (1) PBS, (2) Plasma-Lyte A, (3) saline (OTSUKA NORMAL SALINE, Otsuka Pharmaceutical), (4) Bicanate (Otsuka Pharmaceutical), and (5) Solacet F (Terumo) as the solvents for dilution of thawed cells. Measurement was then performed by the method for staining with 7-AAD described above, and the results were analyzed with the FlowJo software. […] Immediately after completely thawed, the cells were diluted 10-fold in (1) Plasma-Lyte A, (2) saline, (3) RPMI 1640 medium, (4) Lactoringer, (5) 0.423 mM CaCl2 prepared in Plasma-Lyte A, and (6) 1.36 mM CaCl2, and left to stand at 37° C. for 3 hours. The CaCl2 concentration of (5) was the same as that in the RPMI 1640 medium, and the CaCl2 concentration of (6) was the same as that in Lactoringer. Measurement was then performed by the method for staining with 7-AAD described above, and the results were analyzed with the FlowJo software.

Measured: Viability

C[C@H](CCC(=O)NCCS(=O)(=O)O)[C@H]1CC[C@H]2[C@@H]3[C@@H](O)C[C@@H]4C[C@H](O)CC[C@]4(C)[C@H]3CC[C@]12C [TUDCA, tauroursodeoxycholic acid dihydrate]
A (“A” means 70% or higher): Exmp. 6, pretreatment KBM + 10 μM TUDCA 2 h, thawing PlasmaLyte R.T. 1 h, then KBM 2 h | Exmp. 6, pretreatment KBM + 10 μM TUDCA 2 h, thawing PlasmaLyte R.T. 3 h | Exmp. 6, pretreatment KBM + 30 μM TUDCA 2 h, thawing PlasmaLyte R.T. 1 h, then KBM 2 h | Exmp. 6, pretreatment KBM + 30 μM TUDCA 2 h, thawing PlasmaLyte R.T. 3 h | Exmp. 6, pretreatment KBM + 90 μM TUDCA 2 h, thawing PlasmaLyte R.T. 1 h, then KBM 2 h | Exmp. 6, pretreatment KBM + 90 μM TUDCA 2 h, thawing PlasmaLyte R.T. 3 h | Exmp. 6, pretreatment KBM + 270 μM TUDCA 2 h, thawing PlasmaLyte R.T. 1 h, then KBM 2 h | Exmp. 6, pretreatment KBM + 270 μM TUDCA 2 h, thawing PlasmaLyte R.T. 3 h | Exmp. 6, pretreatment KBM + 810 μM TUDCA 2 h, thawing PlasmaLyte R.T. 1 h, then KBM 2 h | Exmp. 6, pretreatment KBM + 810 μM TUDCA 2 h, thawing PlasmaLyte R.T. 3 h | Exmp. 7, pretreatment KBM + 266 μM TUDCA 2 h, thawing PlasmaLyte + IL-2, R.T. 1 h | Exmp. 7, pretreatment KBM + 266 μM TUDCA 2 h, thawing PlasmaLyte + IL-2, R.T. 1 h, then KBM 2 h | Exmp. 7, pretreatment KBM + 266 μM TUDCA 2 h, thawing PlasmaLyte + IL-2, R.T. 3 h | Exmp. 7, pretreatment KBM + 266 μM TUDCA 2 h, thawing PlasmaLyte R.T. 1 h | Exmp. 7, pretreatment KBM + 266 μM TUDCA 2 h, thawing PlasmaLyte R.T. 1 h, then KBM 2 h | Exmp. 7, pretreatment KBM + 266 μM TUDCA 2 h, thawing PlasmaLyte R.T. 3 h | Exmp. 7, pretreatment KBM + 800 μM TUDCA 2 h, thawing PlasmaLyte + IL-2, R.T. 1 h | Exmp. 7, pretreatment KBM + 800 μM TUDCA 2 h, thawing PlasmaLyte + IL-2, R.T. 1 h, then KBM 2 h | Exmp. 7, pretreatment KBM + 800 μM TUDCA 2 h, thawing PlasmaLyte + IL-2, R.T. 3 h | Exmp. 7, pretreatment KBM + 800 μM TUDCA 2 h, thawing PlasmaLyte R.T. 1 h | Exmp. 7, pretreatment KBM + 800 μM TUDCA 2 h, thawing PlasmaLyte R.T. 1 h, then KBM 2 h | Exmp. 7, pretreatment KBM + 800 μM TUDCA 2 h, thawing PlasmaLyte R.T. 3 h | Exmp. 7, pretreatment KBM + 2400 μM TUDCA 2 h, thawing PlasmaLyte + IL-2, R.T. 1 h | Exmp. 7, pretreatment KBM + 2400 μM TUDCA 2 h, thawing PlasmaLyte + IL-2, R.T. 1 h, then KBM 2 h | Exmp. 7, pretreatment KBM + 2400 μM TUDCA 2 h, thawing PlasmaLyte + IL-2, R.T. 3 h | Exmp. 7, pretreatment KBM + 2400 μM TUDCA 2 h, thawing PlasmaLyte R.T. 1 h | Exmp. 7, pretreatment KBM + 2400 μM TUDCA 2 h, thawing PlasmaLyte R.T. 1 h, then KBM 2 h | Exmp. 7, pretreatment KBM + 2400 μM TUDCA 2 h, thawing PlasmaLyte R.T. 3 h
